Laboratory results taken from ChEMBL document CHEMBL1671795, “Evaluation of endogenous fatty acid amides and their synthetic analogues as potential anti-inflammatory leads” (Bioorg Med Chem, 2011).

How the values were obtained:
[1] = system: HaCaT; assay: Antiinflammatory activity against IFN-gamma-stimulated human HaCaT cells assessed as inhibition of chemokine MDC production at 50 to 100 uM after 18 hrs by ELISA; type: functional, cell-based
[2] = system: HaCaT; assay: Cytotoxicity against human HaCaT cells at 50 to 100 uM after 24 hrs by MTT assay; type: cell-based
[3] = system: RAW264.7; assay: Antiinflammatory activity against LPS-stimulated mouse RAW264.7 cells assessed as inhibition of IL1-beta production at 1 to 15 uM after 18 hrs by ELISA; type: functional, cell-based
[4] = system: RAW264.7; assay: Antiinflammatory activity against LPS-stimulated mouse RAW264.7 cells assessed as inhibition of IL-6 production at 1 to 15 uM after 18 hrs by ELISA; type: functional, cell-based
[5] = system: RAW264.7; assay: Antiinflammatory activity against LPS-stimulated mouse RAW264.7 cells assessed as inhibition of TNFalpha production at 1 to 15 uM after 18 hrs by ELISA; type: functional, cell-based
[6] = system: RAW264.7; assay: Antiinflammatory activity against LPS-stimulated mouse RAW264.7 cells assessed as inhibition of NO production at 3.125 to 25 uM after 24 hrs by Griess method; type: functional, cell-based
[7] = system: RAW264.7; assay: Cytotoxicity against mouse RAW264.7 cells at 50 uM after 24 hrs by MTT assay; type: cell-based; conditions: raw264.7, 24 h
[8] = system: RAW264.7; assay: Cytotoxicity against mouse RAW264.7 cells at 100 uM after 24 hrs by MTT assay; type: cell-based; conditions: raw264.7, 24 h
[9] = Cytotoxicity against mouse RAW264.7 cells after 24 hrs by MTT assay; type: cell-based; conditions: read-out: TC50

Row | IC50 ([6]; Mus musculus, RAW264.7, 24 h) [µM] | Structure (SMILES) | Activity [1] | Activity [2] | Activity [3] | Activity [4] | Activity [5] | Activity [6] | Activity ([6]; record 2) [µM] | Activity [7] | Activity [8] | CC50 at 24 h [9] [µM]
1 |  | CCCCCCCC/C=C\CCCCCCCC(=O)NCc1ccc(O)c(OC)c1 [OLVANIL] | Non-toxic | Toxic | Dose-dependent effect | Dose-dependent effect | Dose-dependent effect |  |  |  |  | 
2 |  | CCCCCCCCCCCCCCCC(=O)NCc1ccc(O)c(OC)c1 | Non-toxic | Toxic | Dose-dependent effect | Dose-dependent effect | Dose-dependent effect |  |  |  |  | 
3 |  | CC/C=C\C/C=C\C/C=C\CCCCCCCC(=O)NCc1ccc(O)c(OC)c1 | Non-toxic | Toxic | Dose-dependent effect | Dose-dependent effect | Dose-dependent effect |  |  |  |  | 
4 |  | CC/C=C\C/C=C\C/C=C\CCCCCCCC(=O)NCCc1ccc(O)c(O)c1 [LINOLEOYL DOPAMINE] | Non-toxic |  | Dose-dependent effect | Dose-dependent effect | Dose-dependent effect | Dose-dependent effect |  |  |  | 
5 |  | CCCCC/C=C\C/C=C\CCCCCCCC(=O)NCCc1ccc(O)c(O)c1 | Non-toxic | Toxic | Dose-dependent effect | Dose-dependent effect | Dose-dependent effect | Dose-dependent effect | 2 | Toxic | Toxic | 13
6 |  | CCCCCCCCCCCCCCCC(=O)NCCc1ccc(O)c(O)c1 [PALMITOYL DOPAMINE] | Non-toxic | Toxic | Dose-dependent effect | Dose-dependent effect | Dose-dependent effect | Dose-dependent effect | 2 | Toxic | Toxic | 13
7 |  | CCCCCCCC/C=C\CCCCCCCCCCCC(=O)NCc1ccc(O)c(OC)c1 | Non-toxic | Toxic | Dose-dependent effect | Dose-dependent effect | Dose-dependent effect |  |  |  |  | 
8 |  | CCCCC/C=C\C/C=C\CCCCCCCC(=O)NCc1ccc(O)c(OC)c1 | Non-toxic | Toxic | Dose-dependent effect | Dose-dependent effect | Dose-dependent effect |  |  |  |  | 
9 |  | CCCCCCCC/C=C\CCCCCCCC(=O)NCCc1ccc(O)c(O)c1 [OLEOYL DOPAMINE] | Non-toxic | Toxic | Dose-dependent effect | Dose-dependent effect | Dose-dependent effect | Dose-dependent effect | 2 | Toxic | Toxic | 13
10 | 2 | CCCCCCCCC(=O)/C=C/CCCCCCC(=O)NCCc1ccc(O)c(O)c1 | Non-toxic | Toxic | Dose-dependent effect | Dose-dependent effect | Dose-dependent effect | Dose-dependent effect |  | Toxic | Toxic | 13
11 |  | CCCCCCCC/C=C\CCCCCCCCCCCC(=O)NCCc1ccc(O)c(O)c1 | Non-toxic | Toxic | Dose-dependent effect | Dose-dependent effect | Dose-dependent effect | Dose-dependent effect | 2 | Toxic | Toxic | 13
